The record followed here is publication PMC8695591 (RSC Advances, 2021).

Usually IC50 stands for the midpoint of a concentration-inhibition curve.

This test has as its target cathepsin B (Homo sapiens, UniProt P07858). In words: Cathepsin B inhibition assay. Type of test: biochemical.

Molecule `CC(=O)N[C@@H](CC(C)C)C(=O)N[C@@H](CC(C)C)C(=O)N[C@H](C=O)CCCNC(=N)N` [Leupeptin] had an IC50 of 7.5 µM.
